Among the data in US8895547B2, “Substituted phenyl-oxathiazine derivatives, method for producing them, drugs containing said compounds and the use thereof” (Sanofi, priority 2011, dated 2014) are IC50 values, retold here.

Structures are written as SMILES. pIC50: −log10 of the molar value.

In general, pIC50 refers to the IC50 on a negative log10 scale, so that one unit is a factor of ten. Higher therefore signals a small IC50.

In the experiment the target is T1, human 11β-HSD1 (Homo sapiens, UniProt P28845).
T1 construct: host or cells: microsome fraction
The experiment is described as follows: Enzymatic 11beta-HSD1 test (SPA-based detection). Particulars: human 11β-HSD1 microsome fraction, [1,2-3H]-cortisone, NADPH, 37° C. 1 hour. Type of experiment: biochemical. Summed up: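 Human 11β-HSD1 microsomes (0.2 µg protein) converted [1,2-3H]-cortisone ([…]) for 1 h at 37 °C. The reaction buffer was HEPES/KCl/NaCl/MgCl2 with 0.25 mM NADPH, with compounds added in DMSO. The reaction was stopped with SPA beads, anti-cortisol monoclonal antibody and 0.01 mM SSR110887; after 1 h at room temperature, [3H]-cortisol was scintillation-counted.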

T1 sequence (P28845 whole entry): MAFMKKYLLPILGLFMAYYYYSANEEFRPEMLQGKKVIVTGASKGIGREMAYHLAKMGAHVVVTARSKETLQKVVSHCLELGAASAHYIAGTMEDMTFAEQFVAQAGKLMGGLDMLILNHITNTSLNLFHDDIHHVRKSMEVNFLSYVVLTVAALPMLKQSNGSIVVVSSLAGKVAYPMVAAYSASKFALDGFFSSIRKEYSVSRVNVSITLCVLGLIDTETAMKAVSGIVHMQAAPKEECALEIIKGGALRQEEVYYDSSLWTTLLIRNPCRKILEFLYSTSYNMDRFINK

With `C[C@H](NC1=NS(=O)(=O)[C@H](c2ccc(-c3cncc(C(N)=O)c3)cc2)C(C)(C)O1)c1ccccc1F` [Example 178, 5-(4-{(R)-2-[(S)-1-(2-fluorophenyl)-ethylamino]-6,6-dimethyl-4,4-dioxo-5,6-dihydro-4H-4lambda6-[1,4,3]oxathiazin-5-yl}-phenyl)-nicotinamide], the pIC50 is 8.52.

`CC1(C)OC(N[C@@H](CCO)c2ccccc2)=NS(=O)(=O)C1c1ccccc1` (single isomer, unassigned) [Example 28] showed a negative logarithm of the IC50 (pIC50) of 7.80.

As to `CC(C)(C)c1ccc(C2C(C)(C)OC(N[C@@H](CCO)c3ccccc3F)=NS2(=O)=O)cc1` (single isomer, unassigned) [Example 85], the negative-log IC50 (pIC50) was 8.05.

`O=S1(=O)N=C(N[C@@H](CCO)c2ccccc2F)OC2(CCCC2)C1c1ccc(-c2ccccc2)cc1` (stereo partly drawn) [Example 78, (S)-3-(10-Biphenyl-4-yl-9,9-dioxo-6-oxa-9lambda6-thia-8-aza-spiro[4.5]dec-7-en-7-ylamino)-3-(2-fluorophenyl)-propan-1-ol]: the negative-log IC50 (pIC50) is 7.46.

`COc1ncc(-c2ccc(C3C(C)(C)OC(N[C@@H](CCO)c4ccccc4F)=NS3(=O)=O)cc2)cn1` (stereo partly drawn) [Example 139, (S)-3-(2-fluorophenyl)-3-{5-[4-(2-methoxy-pyrimidin-5-yl)-phenyl]-6,6-dimethyl-4,4-dioxo-5,6-dihydro-4H-4lambda6-[1,4,3]oxathiazin-2-ylamino}-propan-1-ol] showed a pIC50 of 8.30. Compared with the last molecule, the pIC50 is 0.84 log units higher.

In the case of `C[C@H](NC1=NS(=O)(=O)C(C)(c2ccc(C(C)(C)C)cc2)C(C)(C)O1)c1ccccc1F` (stereo partly drawn) [Compound 63, [5-(4-tert-Butylphenyl)-5,6,6-trimethyl-4,4-dioxo-5,6-dihydro-4H-4lambda6-[1,4,3]oxathiazin-2-yl]-[(S)-1-(2-fluorophenyl)ethyl]amine], the pIC50 is 7.49.

Regarding `CC1(C)OC(N[C@@H](CCO)c2ccccc2F)=NS(=O)(=O)C1c1ccc(-c2ccccc2C#N)cc1` (some centres unmarked) [Example 87], the negative logarithm of the IC50 (pIC50) is 8.15. Compared with the last molecule, the pIC50 is 0.66 log units higher.

The molecule `CC1(C)OC(N[C@@H](CCO)c2ccccc2F)=NS(=O)(=O)C1c1ccc(N2CCN(CCO)CC2)cc1` (some centres unmarked) [Example 135] gave a negative-log IC50 (pIC50) of 7.23.

On to `CC1(C)OC(N[C@@H](CCO)c2ccccc2F)=NS(=O)(=O)C1c1ccc(-c2ccc(F)cc2)cc1` (stereo partly drawn) [Example 65, (S)-3-[5-(4′-Fluorobiphenyl-4-yl)-6,6-dimethyl-4,4-dioxo-5,6-dihydro-4H-4lambda6-[1,4,3]oxathiazin-2-ylamino]-3-(2-fluorophenyl)-propan-1-ol], for which the negative-log IC50 (pIC50) is 7.68.

Take `CC1(C)OC(N[C@@H](CCO)c2ccccc2F)=NS(=O)(=O)[C@H]1c1ccc(-c2ccnc(C#N)c2)cc1` [Example 184, 4-(4-{(S)-2-[(S)-1-(2-fluorophenyl)-3-hydroxy-propylamino]-6,6-dimethyl-4,4-dioxo-5,6-dihydro-4H-4lambda6-[1,4,3]oxathiazin-5-yl}-phenyl)-pyridine-2-carbonitrile]: the negative-log IC50 (pIC50) is 8.52. This pIC50 is 0.84 log units higher than that of the molecule before.

Take `C[C@H](NC1=NS(=O)(=O)C(c2cccc(C(=O)N3CCCN(C)CC3)c2)C(C)(C)O1)c1ccccc1F` (stereo partly drawn) [Example 193, (3-{2-[(S)-1-(2-fluorophenyl)-ethylamino]-6,6-dimethyl-4,4-dioxo-5,6-dihydro-4H-4lambda6-[1,4,3]oxathiazin-5-yl}-phenyl)-(4-methyl-[1,4]diazepan-1-yl)-methanone]: the pIC50 was 6.32.

In turn, `C[C@H](NC1=NS(=O)(=O)C(c2ccc(-c3cnc(N)nc3)cc2)C(C)(C)O1)c1ccccc1F` (stereo partly drawn) [Example 196, {5-[4-(2-Amino-pyrimidin-5-yl)-phenyl]-6,6-dimethyl-4,4-dioxo-5,6-dihydro-4H-4lambda6-[1,4,3]oxathiazin-2-yl}-[(S)-1-(2-fluorophenyl)-ethyl]-amine] gave a pIC50 of 8.15.

Molecule `CC1(C)OC(N[C@@H](CCO)c2ccccc2F)=NS(=O)(=O)C1c1ccc(C2CCN(CCC(F)(F)F)CC2)cc1` (stereo partly drawn) [Example 143, (S)-3-(6,6-Dimethyl-4,4-dioxo-5-{4-[1-(3,3,3-trifluoropropyl)-piperidin-4-yl]-phenyl}-5,6-dihydro-4H-4lambda6-[1,4,3]oxathiazin-2-ylamino)-3-(2-fluorophenyl)-propan-1-ol] showed a pIC50 of 7.89. Compared with the last molecule, the pIC50 is 0.26 log units lower.

As for `CC1(C)OC(N[C@@H](CCO)c2ccccc2F)=NS(=O)(=O)[C@@H]1c1ccc(-c2ccnc(C#N)c2)cc1` [Example 185, 4-(4-{(R)-2-[(S)-1-(2-fluorophenyl)-3-hydroxy-propylamino]-6,6-dimethyl-4,4-dioxo-5,6-dihydro-4H-4lambda6-[1,4,3]oxathiazin-5-yl}-phenyl)-pyridine-2-carbonitrile], the pIC50 was 8.40. Against the preceding molecule, the pIC50 is 0.51 log units higher.

As to `CC1(C)OC(N[C@@H](CCO)c2cc(F)ccc2F)=NS(=O)(=O)C1c1ccc(-c2ccccc2)cc1` (stereo partly drawn) [Example 98, (S)-3-(5-Biphenyl-4-yl-6,6-dimethyl-4,4-dioxo-5,6-dihydro-4H-4lambda6-[1,4,3]oxathiazin-2-ylamino)-3-(2,5-difluorophenyl)-propan-1-ol], the negative-log IC50 (pIC50) is 7.92.

`C[C@H](NC1=NS(=O)(=O)C(c2ccc(N3CCNCC3)cc2)C(C)(C)O1)c1ccccc1F` (stereo partly drawn) [Example 167, [6,6-Dimethyl-4,4-dioxo-5-(4-piperazin-1-yl-phenyl)-5,6-dihydro-4H-4lambda6-[1,4,3]oxathiazin-2-yl]-[(S)-1-(2-fluorophenyl)-ethyl]-amine] showed a negative logarithm of the IC50 (pIC50) of 6.91.

With `Cc1ccc(F)cc1[C@H](CCO)NC1=NS(=O)(=O)C(c2ccc(-c3ccccc3)cc2)C(C)(C)O1` (stereo partly drawn) [Example 100, (S)-3-(5-Biphenyl-4-yl-6,6-dimethyl-4,4-dioxo-5,6-dihydro-4H-4lambda6-[1,4,3]oxathiazin-2-ylamino)-3-(5-fluoro-2-methyl-phenyl)-propan-1-ol], the negative-log IC50 (pIC50) is 7.72.

The molecule `CC1(C)OC(N[C@@H](CCO)c2ccccc2)=NS(=O)(=O)C1(C)c1ccccc1` (stereo partly drawn) [Example 42, (S)-3-Phenyl-3-(5,6,6-trimethyl-4,4-dioxo-5-phenyl-5,6-dihydro-4H-4lambda6-[1,4,3]oxathiazin-2-ylamino)-propan-1-ol] had a negative-log IC50 (pIC50) of 7.77.

The molecule `CN1CCN(c2cnc(-c3ccc(C4C(C)(C)OC(N[C@@H](CCO)c5ccccc5F)=NS4(=O)=O)cc3)cn2)CC1` (stereo partly drawn) [Example 133, (S)-3-{6,6-Dimethyl-5-[4-(4-methyl-3,4,5,6-tetrahydro-2H-[1,2′]bipyrazinyl-5′-yl)-phenyl]-4,4-dioxo-5,6-dihydro-4H-4lambda6-[1,4,3]oxathiazin-2-ylamino}-3-(2-fluorophenyl)-propan-1-ol] showed a negative-log IC50 (pIC50) of 8.15.

In turn, `CC1(C)OC(N[C@@H](CCO)c2ccccc2F)=NS(=O)(=O)C1c1ccc(-c2csc(N3CCOCC3)n2)cc1` (stereo partly drawn) [Example 118, (S)-3-{6,6-Dimethyl-5-[4-(2-morpholin-4-yl-thiazol-4-yl)-phenyl]-4,4-dioxo-5,6-dihydro-4H-4lambda6-[1,4,3]oxathiazin-2-ylamino}-3-(2-fluorophenyl)-propan-1-ol] gave a pIC50 of 8.10.

Take `CC1(C)OC(N[C@@H](CCO)c2ccccc2F)=NS(=O)(=O)C1(C)c1cccc(-c2ccccc2)c1` (single isomer, unassigned) [Example 75]: the pIC50 was 7.36.

Molecule `CC1(C)OC(N[C@@H](CCO)c2ccccc2F)=NS(=O)(=O)C1(C)c1cccc(Br)c1` (stereo partly drawn) [Example 47, (S)-3-[5-(3-Bromophenyl)-5,6,6-trimethyl-4,4-dioxo-5,6-dihydro-4H-4lambda6-[1,4,3]oxathiazin-2-ylamino]-3-(2-fluorophenyl)-propan-1-ol] had a negative-log IC50 (pIC50) of 8.30.

The molecule `C[C@H](NC1=NS(=O)(=O)C(c2ccc(-c3ccccc3CN(C)C)cc2)C(C)(C)O1)c1ccccc1F` (stereo partly drawn) [Example 173, [5-(2′-Dimethylaminomethyl-biphenyl-4-yl)-6,6-dimethyl-4,4-dioxo-5,6-dihydro-4H-4lambda6-[1,4,3]oxathiazin-2-yl]-[(S)-1-(2-fluorophenyl)-ethyl]-amin] had a pIC50 of 6.86.

Molecule `CNCCCc1ccc(C2C(C)(C)OC(N[C@@H](CCO)c3ccccc3F)=NS2(=O)=O)cc1` (stereo partly drawn) [Example 117, (S)-3-{6,6-Dimethyl-5-[4-(3-methylamino-propyl)-phenyl]-4,4-dioxo-5,6-dihydro-4H-4lambda6-[1,4,3]oxathiazin-2-ylamino}-3-(2-fluorophenyl)-propan-1-ol] showed a negative-log IC50 (pIC50) of 7.64. Against the preceding molecule, the pIC50 is 0.78 log units higher.

Molecule `C[C@H](NC1=NS(=O)(=O)C(c2ccc(C(C)(C)O)cc2)C(C)(C)O1)c1ccccc1F` (stereo partly drawn) [Example 162, 2-(4-{2-[(S)-1-(2-fluorophenyl)-ethylamino]-6,6-dimethyl-4,4-dioxo-5,6-dihydro-4H-4lambda6-[1,4,3]oxathiazin-5-yl}-phenyl)-propan-2-ol] showed a pIC50 of 7.28.

Consider `C[C@H](NC1=NS(=O)(=O)C(c2cccc(-c3ccccc3)c2)C(C)(C)O1)c1ccccc1F` (stereo partly drawn) [Example 68, (5-Biphenyl-3-yl-6,6-dimethyl-4,4-dioxo-5,6-dihydro-4H-4lambda6-[1,4,3]oxathiazin-2-yl)-[(S)-1-(2-fluorophenyl)-ethyl]-amine], for which the negative-log IC50 (pIC50) was 7.47. The pIC50 values of the last two molecules are within 0.2 log units of each other.

With `C[C@H](NC1=NS(=O)(=O)[C@@H](c2ccc(-c3cncc(C(N)=O)c3)cc2)C(C)(C)O1)c1ccccc1F` [Example 177, 5-(4-{(S)-2-[(S)-1-(2-fluorophenyl)-ethylamino]-6,6-dimethyl-4,4-dioxo-5,6-dihydro-4H-4lambda6-[1,4,3]oxathiazin-5-yl}-phenyl)-nicotinamide], the negative logarithm of the IC50 (pIC50) was 7.77. Against the preceding molecule, the pIC50 is 0.30 log units higher.

Regarding `CC1(C)OC(N[C@@H](CCO)c2ccccc2F)=NS(=O)(=O)C1c1ccc(N2CCN(CCC(F)(F)F)CC2)cc1` (single isomer, unassigned) [Example 183], the pIC50 is 7.70.

Molecule `C[C@H](NC1=NS(=O)(=O)C(c2ccc(-c3ccccc3)nc2)C(C)(C)O1)c1ccccc1F` (stereo partly drawn) [Example 164, [6,6-Dimethyl-4,4-dioxo-5-(6-phenyl-pyridin-3-yl)-5,6-dihydro-4H-4lambda6-[1,4,3]oxathiazin-2-yl]-[(S)-1-(2-fluorophenyl)-ethyl]-amine] had a pIC50 of 7.57.
